From article PMC10953011, “Oxygen‐insensitive nitroreductase E. coli NfsA, but not NfsB, is inhibited by fumarate” (Proteins, 2022) come the findings set out here.

Assay [1] has as its target T1, NfsA (Escherichia coli, UniProt P17117).
T1 sequence (P17117 1-240): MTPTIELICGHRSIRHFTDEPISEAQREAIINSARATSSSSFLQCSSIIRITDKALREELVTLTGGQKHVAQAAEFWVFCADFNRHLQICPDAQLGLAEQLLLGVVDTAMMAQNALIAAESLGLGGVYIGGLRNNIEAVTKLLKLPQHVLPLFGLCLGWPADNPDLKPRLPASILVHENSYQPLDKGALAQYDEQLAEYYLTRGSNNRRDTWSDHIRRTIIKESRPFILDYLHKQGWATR
Description: X-ray crystal structure ([…] Å); steady-state inhibition kinetics with nitrofurazone and NADPH. The class given is biochemical. The arrangement: untagged full-length, 240 residues, dimer.

Assay [2] deals with T1, NfsA. Description: steady-state inhibition kinetics with nitrofurazone and NADPH, […] nm. The arrangement: untagged full-length. The class given is biochemical.

`O=C(O)/C=C/C(=O)O` [fumarate] displayed an inhibition constant Ki in assay [1] of 145 ± 28 µM. For `O=C(O)CCC(=O)O` [succinate], affinity in assay [2] was put at a Ki of 4300 ± 600 µM.
